This is an account of results in patent publication US10512700B2, “Radiohalide-labeled targeted diagnostics and therapeutics” (Memorial Sloan Kettering Cancer Center, priority 2014, dated 2019).

The structures appear in SMILES notation. Values joined by “and” are separate entries in the source; they are usually repeats but may differ in a detail not shown here. Identical values can stand only once.

A short description of data set [1]: Stability in whole blood (in vitro). It counts as in vitro ADME, mouse. The protocol:
[…] […] The sample was centrifuged at 3000 RCF for 3 min at 4° C., and the supernatant collected. This procedure was repeated three times, and the combined supernatants analyzed by HPLC equipped with radioactive detector (Shimadzu, Kyoto, Japan), collecting samples every 30 sec. Radioactivity of each fraction was measured on a Wizard 2470 Automatic Gamma Counter (Perkin Elmer, Waltham, Mass.) and the blood stability was analyzed using Prism 6.0c (GraphPad Software, La Jolla, Calif.).

Data set [2] deals with U251 MG tumor bearing mice. The data set can be described thus: Biodistribution. Format: in vivo, mouse. To be noted: C-2d, i.v., 2 h post injection. On the procedure: Biodistribution studies were conducted on female nude mice (8-10 weeks old and 20-25 g in weight, n=21) bearing U251 MG subcutaneous xenografts. The radiolabeled preparation (20-30 μCi of compound C-2d (^131I) in 200 μL of a solution 90% PBS 10% PEG300) was administrated via the lateral tail vein. The compound was allowed to circulate for 2 h post injection at which time mice were sacrificed and organs were harvested (n=3). The radioactive content in tissue of interest (blood, tumor, muscle, bone, liver, spleen, kidney, heart, lung, pancreas, brain, skin, small intestine, large intestine, stomach, tail, thyroid and feces) was measured on a Wizard 2470 Automatic Gamma Counter, and the tissue-associated activity was calculated as the mean % ID/g using the following formula: [(activity in the target organ/grams of tissue)/injected dose]×100%.
Biodistribution studies were performed in subcutaneous U251 MG xenograft bearing athymic nude mice (n=12). Mice were divided in two groups (blocked and unblocked) and administered with C-2f (approximately 50 μCi, 45 mCi/μmol in […], 10% EtOH in 0.9% sterile saline) via tail vein injection. […] Mice were sacrificed by CO2 asphyxiation at 120 min post injection and major organs were collected, weighed, and counted in a WIZARD^2 automatic γ-counter (PerkinElmer, Boston, Mass.). The radiopharmaceutical uptake was expressed as a percentage of injected dose per gram (% ID/g) using the following formula: [(activity in the target organ/grams of tissue)/injected dose]×100%.

On to `O=C(c1ccc([131I])cc1)N1CCN(C(=O)c2cc(Cc3n[nH]c(=O)c4ccccc34)ccc2F)CC1` [C-2d (^131I)], for which the “in vitro blood stability” value in data set [1] (mouse blood, 37° C., over 60 min) was “confirmed the stability of the compound”. In addition, the “in vitro blood stability” value in data set [1] (over the course of 120 minutes) was “confirmed the stability of the compound”. Also, in data set [2], the “% ID/g, Blood” value is 0.27 % ID/g; the “% ID/g, Bone” value was determined as 0.07 % ID/g; the “% ID/g, Brain” value is 0.011±0.003 % ID/g and 0.01 % ID/g; the “% ID/g, Feces” value was determined as 4.34 % ID/g. For the same compound, in data set [2], the “% ID/g, Heart” value stood at 0.16 % ID/g; the “% ID/g, Kidneys” value is given as 0.61 % ID/g; the “% ID/g, Large intestine” value came to 1.26 % ID/g; the “% ID/g, Liver” value is on record as 2.34 % ID/g. In data set [2], the “% ID/g, Lung” value is given as 0.28 % ID/g; the “% ID/g, Muscle” value is 0.03±0.01 % ID/g and 0.03 % ID/g; the “% ID/g, Pancreas” value is listed as 0.15 % ID/g; the “% ID/g, Skin” value is reported as 0.25 % ID/g. Besides, in data set [2], the “% ID/g, Small intestine” value is 11.70 % ID/g; the “% ID/g, Spleen” value worked out at 0.40 % ID/g; the “% ID/g, Stomach” value was 0.88 % ID/g; the “% ID/g, Tail” value came out at 0.60 % ID/g. In data set [2], the “% ID/g, Thyroid” value is on record as 0.24 % ID/g; the “% ID/g, Tumor” value was 0.43±0.06 % ID/g and 0.43 % ID/g.
